pEC50, pIC50: −log10 of the molar value.
What was measured:
EL4 cells = test: RORγ target gene expression in PMA/ionomycin stimulated EL4 cells; type: cell-based; settings: PMA and ionomycin, compound at 10 μM
Excerpt: FIG. 1D is a graph showing PPARγ target genes (aP2 and CD36) expression in OP9 cells with and without MDI (IBMX, dexamethasone, insulin) treatment. […] Specific residues driving the interaction labelled and shown as sticks as well. […] Quantitative RT-PCR: Total RNA was extracted from EL4 or RAW264.7 cells using RNeasy Plus Micro Kit (Qiagen) and the RNA was reverse transcribed using the ABI reverse transcription kit (Applied Biosystems/Thermo Fisher Scientific, Waltham MA). Quantitative PCR was performed with a 7900HT Fast Real Time PCR System (Applied Biosystems) using SYBR green (Roche).

LXRα = molecular target: T1, LXRα (Homo sapiens, UniProt Q13133); test: Gal4-LXRα co-transfection promoter-reporter assay; type: cell-based; settings: HEK293T cells, read-out: LXR agonist activity EC50
T1 sequence (Q13133 209-447 limits assumed): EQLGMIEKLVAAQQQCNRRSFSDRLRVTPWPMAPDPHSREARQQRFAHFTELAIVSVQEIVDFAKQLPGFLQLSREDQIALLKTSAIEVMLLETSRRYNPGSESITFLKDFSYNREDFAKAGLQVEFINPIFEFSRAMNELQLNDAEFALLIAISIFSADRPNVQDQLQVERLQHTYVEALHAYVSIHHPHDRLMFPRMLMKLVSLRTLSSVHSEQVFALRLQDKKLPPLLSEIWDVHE
Excerpt: FIGS. 1A to 1E: Pan modulator with poly-pharmacology. […] FIG. 1D is a graph showing PPARγ target genes (aP2 and CD36) expression in OP9 cells with and without MDI (IBMX, dexamethasone, insulin) treatment. […] SR1903 is represented as orange sticks while PPARγ, RORγ, and LXRβ are depicted as blue ribbons respectively. Specific residues driving the interaction labelled and shown as sticks as well. […] FIG. 1F are graphs showing RORγ target genes (IL17A and IL17F) expression in EL4 cells.
(§1) Reporter gene assays: Twenty-four hours before transfection, HEK293T cells were plated in 96-well plates at a density of 15×10^3 cells per well. UAS:luciferase reporter and Ga14-RORa, Gal4-RORb, Gal4-RORγ, Gal4-LXRα, or Gal4 PPARγ DNA co-transfections were performed using X-tremeGENE 9 (Roche). Twenty-four hours after transfection, the cells were treated with vehicle or compound. Twenty-four hours after treatment, the luciferase activity was measured using the Dual-Glo luciferase assay system (Promega). Results were analyzed using GraphPad Prism software.

TREM-1 [1] = test: TREM-1 surface expression by FACS in LPS-stimulated RAW264.7 cells; type: cell-based, mouse; settings: 50 hr incubation
Procedure: (§2) FIG. 2B are graphs showing TREM-1 gene expression by q-PCR. […] All experiments were performed with 3 biological replicates and the median value of TREM-1 fluorescence was represented by the graph on the bottom.
Flow cytometry and antibodies: For the analysis of macrophage activation, RAW264.7 cells (American Type Culture Collection) were pre-incubated with 5 μM 1903 for 18 h then stimulated with 1 μg/mL LPS (Escherichia coli 0127:B8, Sigma-Aldrich (St. Louis, MO)) for 6 h. RAW264.7 cells were stained with APC conjugated anti-TREM-1 antibody (eBioscience). Cell sorting was performed using LSRII (BD Bioscience).

[2] = test system: collagen-induced arthritis; test: Collagen-induced arthritis (CIA) mouse model; settings: for enlargement of the liver: CIA mice, 20 mg/kg
Procedure: Clinical score was monitored every day after boosting during 18 days. […] The dosage of all compounds was identical in each group.
Briefly, DBA/1J mice were injected with chicken type II collagen on day 1 and then each animal received a boost injection of collagen on Day 21. Compound treatment, initiated on day 3-post boost injection, was administered intraperitoneally at 20 mg/kg twice-a-day for a total of 16 days. […] Mice: All mice were maintained in a specific pathogen-free environment in accordance with institutional protocol. […] Female DBA/1J mice were purchased from Taconic. CIA was induced in 8 weeks as previously described^40.

RORγ = molecular target: T2, RORγ (Homo sapiens, UniProt P51449); test: Gal4-RORγ co-transfection promoter-reporter assay; settings: cell-based promoter-reporter Gal4 assay format, HEK293T cells
T2 sequence (P51449 269-518 limits assumed): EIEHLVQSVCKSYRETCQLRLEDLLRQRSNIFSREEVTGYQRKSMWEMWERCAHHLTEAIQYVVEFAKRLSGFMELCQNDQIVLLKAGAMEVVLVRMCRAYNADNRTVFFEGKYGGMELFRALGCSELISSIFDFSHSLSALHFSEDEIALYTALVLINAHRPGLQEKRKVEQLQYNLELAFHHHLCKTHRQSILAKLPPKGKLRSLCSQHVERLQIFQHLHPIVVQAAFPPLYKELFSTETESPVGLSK

RORα = test: Gal4-RORα co-transfection promoter-reporter assay; type: cell-based; settings: Gal4 assay format
Procedure: as §1

RORβ = test: Gal4-RORβ co-transfection promoter-reporter assay; type: cell-based; settings: Gal4 assay format
Procedure: as §1

TREM-1 [3] = test: TREM-1 gene expression in LPS-stimulated RAW264.7 cells (RNA sequencing, qPCR); type: cell-based, mouse; settings: 26 hr exposure
Procedure: as §2
Quantitative RT-PCR: Total RNA was extracted from EL4 or RAW264.7 cells using RNeasy Plus Micro Kit (Qiagen) and the RNA was reverse transcribed using the ABI reverse transcription kit (Applied Biosystems/Thermo Fisher Scientific, Waltham MA). Quantitative PCR was performed with a 7900HT Fast Real Time PCR System (Applied Biosystems) using SYBR green (Roche).
mRNA sequencing analysis: RAW264.7 cells RNA extraction protocol for RNA seq was derived from Qiagen Kit-74106. Total RNA was quantified using the Qubit 2.0 Fluorometer (Invitrogen, Carlsbad, CA) and run on the Agilent 2100 Bioanalyzer (Agilent Technologies, Santa Clara, CA) for quality assessment. RNA samples of good quality with RNA Integrity Number (RIN)>8.0 were further processed. A RNase-free working environment was maintained and RNase-free tips, Eppendorf tubes and plates were utilized for the subsequent steps. Messenger RNA was selectively isolated from total RNA (300 ng input) using poly-T oligos attached to magnetic beads and converted to sequence-ready libraries using the TruSeq stranded mRNA sample prep protocol (Cat. #: RS-122-2101, Illumina, San Diego, CA). The final libraries were validated on the bioanalyzer DNA chips and qPCR quantified using primers that recognize the illumina adaptors. The libraries were then pooled at equimolar ratios, quantified using qPCR and loaded onto the NextSeq 500 flow cell at 1.8 pM final concentration. They were sequenced using the high-output, paired-end, 75-bp chemistry. Demultiplexed and quality filtered raw reads (fastq) generated from the NextSeq 500 were trimmed (adaptor sequences) using Flexbar 2.4 and aligned to the mouse reference database (mm9) using TopHat version 2.0.9 (Trapnell et al., 2009). HTseq-count version 0.6.1 was used to generate gene counts and differential gene expression analysis was performed using Deseq2 (Anders and Huber, 2010).

TH17 cells = settings: Chang et al. study; cited from earlier work
[4] = test system: collagen-induced arthritis; settings: Chang et al. (2014); cited from earlier work

Row | SMILES | IL17F expression (EL4 cells) | pEC50 (LXRα) | LPS-induced TREM1 cell surface expression (TREM-1 [1]) | enlargement of the liver [2] | arthritis clinical score ([2]; Day 34, 20 mg/kg i.p. twice-a-day, vehicle 13.6±2.9) | pIC50 (RORγ) | activity on RORα (RORα) | activity on RORβ (RORβ) | LPS induction of TREM-1 gene expression (qPCR) (TREM-1 [3]) | IL-17 and IL-23R expression (TH17 cells) | TH17 cell differentiation (TH17 cells) | therapeutic effect in CIA mice [4]
1 | O=C(O)Cc1cccc(OCCCN(Cc2cccc(C(F)(F)F)c2Cl)CC(c2ccccc2)c2ccccc2)c1 [GW3965, reference compound] | lacked the ability to repress | 6.81 | only modestly dampened | did not cause enlargement of the liver | only very modest effects | 4.37 | lack activity | lack activity | significantly repressed |  |  | 
2 | OC(c1ccc(-c2ccc(CN3CCN(Cc4ccncc4)CC3)cc2)c(F)c1)(C(F)(F)F)C(F)(F)F [SR2211] |  |  |  |  |  |  |  |  |  | reduced | inhibited | robust therapeutic effect
3 | O=S(=O)(c1ccccc1)N(CC(F)(F)F)c1ccc(C(O)(C(F)(F)F)C(F)(F)F)cc1 [T0901317, N-(2,2,2-trifluoroethyl)-N-[4-[2,2,2-trifluoro-1-hydroxy-1-(trifluoromethyl)ethyl]phenyl]-benzenesulfonamide, reference compound] |  |  |  | negative effect on liver |  |  |  |  |  |  |  | 
